Assay results taken from patent US10208030B2, “GPR119 agonist compounds” (Mankind Pharma Ltd., priority 2016, dated 2019).

Molecular target: T1, hGPR119 (Homo sapiens, UniProt Q8TDV5)
T1 construct: expressed in transfected cells; host or cells: CHO cells (CHO-hGPR119)
T1 sequence (Q8TDV5 1-335): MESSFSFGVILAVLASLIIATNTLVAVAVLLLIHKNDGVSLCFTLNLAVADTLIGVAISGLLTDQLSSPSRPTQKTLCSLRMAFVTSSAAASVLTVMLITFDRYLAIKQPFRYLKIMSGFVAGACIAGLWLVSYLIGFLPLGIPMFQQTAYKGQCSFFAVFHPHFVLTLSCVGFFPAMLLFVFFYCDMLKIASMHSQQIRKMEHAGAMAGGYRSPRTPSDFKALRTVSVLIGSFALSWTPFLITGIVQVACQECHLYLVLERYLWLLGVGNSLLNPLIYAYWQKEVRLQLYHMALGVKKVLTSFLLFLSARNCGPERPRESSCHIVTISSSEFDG
Test: In vitro cyclic AMP assay (Cisbio HTRF) in CHO-hGPR119 cells
Assay type: cell-based
Settings: 1 h, cAMP, 1 μM, 60 min, read-out: Induction (% induction at 1 μM)
Protocol: cAMP measurements were done using Cisbio dynamic 2 HTRF kit according to the manufacturer's protocol. Briefly, CHO-hGPR119 cells were plated at a cell density of 5000 cells/well/5 μl into a white small volume 384 well plate. The final concentrations of IBMX and DMSO used were 1 mM and 0.5% respectively. Cells were treated with various concentrations of the test compound for 60 min at room temperature. Cells were lysed by buffer containing Anti-cAMP antibody and d2-cAMP reagents and incubated for 1 hour at room temperature. HTRF was measured at 337 nm excitation and emission wavelengths of 665 nm and 620 nm on a microplate reader (Flurostar, BMG Labtech). Graphpad prism software was utilized for EC50 determinations.

Point of comparison: `CCc1cnc(N2CCC(C(C)Oc3nn4cc(-c5ccncc5)nc4s3)CC2)nc1` (stereo in doubt) [Compound 1080, 2-((S)-1-(1-(5-ethylpyrimidin-2-yl)piperidin-4-yl)ethoxy)-6-(pyridin-4-yl)imidazo[2,1-b][1,3,4]thiadiazole], activation at 1 µM 74%. Against it:
- CC(C)c1noc(N2CCC(C(C)Oc3nn4cc(-c5ccncc5F)nc4s3)CC2)n1 (stereo in doubt) [Compound 1064, (S)-5-(4-(1-((6-(3-fluoropyridin-4-yl)imidazo[2,1-b][1,3,4]thiadiazol-2-yl)oxy)ethyl)piperidin-1-yl)-3-isopropyl-1,2,4-oxadiazole] — higher, 75%
- CC(C)c1noc(N2CCC(C(C)Oc3nn4cc(-c5ccc(C(F)(F)F)nc5)nc4s3)CC2)n1 (stereo in doubt) [Compound 1084, 2-((S)-1-(1-(3-isopropyl-1,2,4-oxadiazol-5-yl)piperidin-4-yl)ethoxy)-6-(6-(trifluoromethyl)pyridin-3-yl)imidazo[2,1-b][1,3,4]thiadiazole] — lower, 72%
- CCc1cnc(N2CCC(C(C)Oc3nn4cc(-c5ccc(S(C)(=O)=O)nc5F)nc4s3)CC2)nc1 (stereo in doubt) [Compound 1102, 2-((S)-1-(1-(5-ethylpyrimidin-2-yl)piperidin-4-yl)ethoxy)-6-(2-fluoro-6-(methylsulfonyl)pyridin-3-yl)imidazo[2,1-b][1,3,4]thiadiazole] — higher, 84%
- CC(C)c1noc(C2CCN(c3nsnc3Oc3ccc(-n4cnnn4)cc3)CC2)n1 [Compound 1003, 5-(1-(4-(4-(1H-tetrazol-1-yl)phenoxy)-1,2,5-thiadiazol-3-yl)piperidin-4-yl)-3-isopropyl-1,2,4-oxadiazole] — lower, 3%
- CCc1cnc(N2CCC(c3nsnc3-c3ccc(S(C)(=O)=O)cc3)CC2)nc1 [Compound 1004, 3-(1-(5-ethylpyrimidin-2-yl)piperidin-4-yl)-4-(4-(methylsulfonyl)phenyl)-1,2,5-thiadiazole] — lower, 6%
- CCc1cnc(N2CC=C(c3nsnc3Oc3ccc(-n4cnnn4)cc3)CC2)nc1 [Compound 1005, 3-(4-(1H-tetrazol-1-yl)phenoxy)-4-(1-(5-ethylpyrimidin-2-yl)-1,2,3,6-tetrahydropyridin-4-yl)-1,2,5-thiadiazole] — lower, 2%
- CC(C)c1noc(C2CCN(c3nsnc3COc3ccc(S(C)(=O)=O)cc3F)CC2)n1 [Compound 1006, 5-(1-(4-((2-fluoro-4-(methylsulfonyl)phenoxy)methyl)-1,2,5-thiadiazol-3-yl)piperidin-4-yl)-3-isopropyl-1,2,4-oxadiazole] — lower, 9%
- CC(C)c1noc(C2CCN(c3nsnc3-c3ccc(S(C)(=O)=O)cc3)CC2)n1 [Compound 1007, 3-isopropyl-5-(1-(4-(4-(methylsulfonyl)phenyl)-1,2,5-thiadiazol-3-yl)piperidin-4-yl)-1,2,4-oxadiazole] — lower, -8%
- CC(C)OC(=O)N1CCN(c2nsnc2Oc2ccc(-n3cnnn3)cc2)CC1 [Compound 1010, isopropyl 4-(4-(4-(1H-tetrazol-1-yl)phenoxy)-1,2,5-thiadiazol-3-yl)piperazine-1-carboxylate] — lower, 2%
- CC(C)c1noc(N2CCC(COc3nsnc3OCC3CCN(c4nc(C(C)C)no4)CC3)CC2)n1 [Compound 1011, 3,4-bis((1-(3-isopropyl-1,2,4-oxadiazol-5-yl)piperidin-4-yl)methoxy)-1,2,5-thiadiazole] — lower, 2%
- CC(C)c1noc(C2CCN(c3nsnc3C(=O)Nc3ccc(S(C)(=O)=O)cc3F)CC2)n1 [Compound 1012, N-(2-fluoro-4-(methylsulfonyl)phenyl)-4-(4-(3-isopropyl-1,2,4-oxadiazol-5-yl)piperidin-1-yl)-1,2,5-thiadiazole-3-carboxamide] — lower, 22%
- CCc1cnc(N2CCC(c3nsnc3C(=O)Nc3ccc(S(C)(=O)=O)cc3F)CC2)nc1 [Compound 1015, 4-(1-(5-ethylpyrimidin-2-yl)piperidin-4-yl)-N-(2-fluoro-4-(methylsulfonyl)phenyl)-1,2,5-thiadiazole-3-carboxamide] — lower, 3%
- CC(C)c1noc(C2CCN(c3nn4cc(-c5ccc(S(C)(=O)=O)cc5)nc4s3)CC2)n1 [Compound 1016, 3-isopropyl-5-(1-(6-(4-(methylsulfonyl)phenyl)imidazo[2,1-b][1,3,4]thiadiazol-2-yl)piperidin-4-yl)-1,2,4-oxadiazole] — lower, 54%
- CC(C)c1noc(N2CCC(COc3nn4cc(-c5ccc(S(C)(=O)=O)cc5)nc4s3)CC2)n1 [Compound 1017, 3-isopropyl-5-(4-(((6-(4-(methylsulfonyl)phenyl)imidazo[2,1-b][1,3,4]thiadiazol-2-yl)oxy)methyl)piperidin-1-yl)-1,2,4-oxadiazole] — lower, 39%
- CC(C)c1noc(N2CCC(Oc3nn4cc(-c5ccc(S(C)(=O)=O)cc5)nc4s3)CC2)n1 [Compound 1018, 3-isopropyl-5-(4-((6-(4-(methylsulfonyl)phenyl)imidazo[2,1-b][1,3,4]thiadiazol-2-yl)oxy)piperidin-1-yl)-1,2,4-oxadiazole] — lower, 20%
- CS(=O)(=O)c1ccc(-c2cn3nc(C4CCN(Cc5ccccc5)CC4)sc3n2)cc1 [Compound 1019, 2-(1-benzylpiperidin-4-yl)-6-(4-(methylsulfonyl)phenyl)imidazo[2,1-b][1,3,4]thiadiazole] — lower, 11%
- CC(C)OC(=O)N1CCN(c2nn3cc(-c4ccc(S(C)(=O)=O)cc4)nc3s2)CC1 [Compound 1020, isopropyl 4-(6-(4-(methylsulfonyl)phenyl)imidazo[2,1-b][1,3,4]thiadiazol-2-yl)piperazine-1-carboxylate] — lower, 1%
- CC(C)OC(=O)N1CCC(N(C)c2nn3cc(-c4ccc(S(C)(=O)=O)cc4)nc3s2)CC1 [Compound 1022, isopropyl 4-(methyl(6-(4-(methylsulfonyl)phenyl)imidazo[2,1-b][1,3,4]thiadiazol-2-yl)amino)piperidine-1-carboxylate] — lower, 16%
- CCc1cnc(N2CCC(Nc3nn4cc(-c5ccc(S(C)(=O)=O)cc5)nc4s3)CC2)nc1 [Compound 1023, N-(1-(5-ethylpyrimidin-2-yl)piperidin-4-yl)-6-(4-(methylsulfonyl)phenyl)imidazo[2,1-b][1,3,4]thiadiazol-2-amine] — lower, 0%
- CC(C)OC(=O)N1CCC(c2nn3cc(-c4ccc(S(C)(=O)=O)cc4)nc3s2)CC1 [Compound 1024, isopropyl 4-(6-(4-(methylsulfonyl)phenyl)imidazo[2,1-b][1,3,4]thiadiazol-2-yl)piperidine-1-carboxylate] — lower, 38%
- CN(c1nn2cc(-c3ccc(S(C)(=O)=O)cc3)nc2s1)C1CCN(C(N)=O)CC1 [Compound 1025, 4-(methyl(6-(4-(methylsulfonyl)phenyl)imidazo[2,1-b][1,3,4]thiadiazol-2-yl)amino)piperidine-1-carboxamide] — lower, 11%
- CC(C)c1noc(N2CCC(c3nn4cc(-c5ccc(S(C)(=O)=O)cc5)nc4s3)CC2)n1 [Compound 1027, 3-isopropyl-5-(4-(6-(4-(methylsulfonyl)phenyl)imidazo[2,1-b][1,3,4]thiadiazol-2-yl)piperidin-1-yl)-1,2,4-oxadiazole] — lower, 41%
- CC(C)c1noc(N2CCC(N(C)c3nn4cc(-c5ccc(S(C)(=O)=O)cc5)nc4s3)CC2)n1 [Compound 1029, N-(1-(3-isopropyl-1,2,4-oxadiazol-5-yl)piperidin-4-yl)-N-methyl-6-(4-(methylsulfonyl)phenyl)imidazo[2,1-b][1,3,4]thiadiazol-2-amine] — lower, 9%
- CC(C)OC(=O)N1CCC(c2cn3nc(-c4ccc(S(C)(=O)=O)cc4)sc3n2)CC1 [Compound 1030, isopropyl 4-(2-(4-(methylsulfonyl)phenyl)imidazo[2,1-b][1,3,4]thiadiazol-6-yl)piperidine-1-carboxylate] — lower, 26%
- CS(=O)(=O)c1ccc(-c2cn3nc(C4CCN(S(C)(=O)=O)CC4)sc3n2)cc1 [Compound 1031, 6-(4-(methylsulfonyl)phenyl)-2-(1-(methylsulfonyl)piperidin-4-yl)imidazo[2,1-b][1,3,4]thiadiazole] — lower, 1%
- CC(C)c1noc(N2CCC(c3cn4nc(-c5ccc(S(C)(=O)=O)cc5)sc4n3)CC2)n1 [Compound 1032, 3-isopropyl-5-(4-(2-(4-(methylsulfonyl)phenyl)imidazo[2,1-b][1,3,4]thiadiazol-6-yl)piperidin-1-yl)-1,2,4-oxadiazole] — lower, 41%
- CN(C)C(=O)N1CCC(c2nn3cc(-c4ccc(S(C)(=O)=O)cc4)nc3s2)CC1 [Compound 1033, N,N-dimethyl-4-(6-(4-(methylsulfonyl)phenyl)imidazo[2,1-b][1,3,4]thiadiazol-2-yl)piperidine-1-carboxamide] — lower, 2%
- CC(C)OC(=O)N1CCC(c2cn3nc(-c4ccc(C(=O)N(C)C)cc4)sc3n2)CC1 [Compound 1034, isopropyl 4-(2-(4-(dimethylcarbamoyl)phenyl)imidazo[2,1-b][1,3,4]thiadiazol-6-yl)piperidine-1-carboxylate] — lower, 53%

Same assay, conditions: cAMP, class symbols, legend not given

With `CC(C)c1noc(N2CCC(C(C)Oc3nn4cc(-c5ccncc5F)nc4s3)CC2)n1` (stereo in doubt) [Compound 1064, (S)-5-(4-(1-((6-(3-fluoropyridin-4-yl)imidazo[2,1-b][1,3,4]thiadiazol-2-yl)oxy)ethyl)piperidin-1-yl)-3-isopropyl-1,2,4-oxadiazole] the EC50 was “A++”.
In the case of `CCc1cnc(N2CCC(C(C)Oc3nn4cc(-c5ccc(S(C)(=O)=O)nc5F)nc4s3)CC2)nc1` (stereo in doubt) [Compound 1102, 2-((S)-1-(1-(5-ethylpyrimidin-2-yl)piperidin-4-yl)ethoxy)-6-(2-fluoro-6-(methylsulfonyl)pyridin-3-yl)imidazo[2,1-b][1,3,4]thiadiazole], the EC50 is reported as “A+”.
